The text below walks through data of patent US9206161B2, “Bridged bicyclic heteroaryl substituted triazoles useful as Axl inhibitors” (Rigel Pharmaceuticals, Inc., priority 2008, dated 2015).

pIC50: −log10 of the molar value.

The target of this assay is T1, Axl (Homo sapiens, UniProt P30530).
T1 construct: endogenous in cells; host or cells: HeLa cells
T1 sequence (P30530 26-894): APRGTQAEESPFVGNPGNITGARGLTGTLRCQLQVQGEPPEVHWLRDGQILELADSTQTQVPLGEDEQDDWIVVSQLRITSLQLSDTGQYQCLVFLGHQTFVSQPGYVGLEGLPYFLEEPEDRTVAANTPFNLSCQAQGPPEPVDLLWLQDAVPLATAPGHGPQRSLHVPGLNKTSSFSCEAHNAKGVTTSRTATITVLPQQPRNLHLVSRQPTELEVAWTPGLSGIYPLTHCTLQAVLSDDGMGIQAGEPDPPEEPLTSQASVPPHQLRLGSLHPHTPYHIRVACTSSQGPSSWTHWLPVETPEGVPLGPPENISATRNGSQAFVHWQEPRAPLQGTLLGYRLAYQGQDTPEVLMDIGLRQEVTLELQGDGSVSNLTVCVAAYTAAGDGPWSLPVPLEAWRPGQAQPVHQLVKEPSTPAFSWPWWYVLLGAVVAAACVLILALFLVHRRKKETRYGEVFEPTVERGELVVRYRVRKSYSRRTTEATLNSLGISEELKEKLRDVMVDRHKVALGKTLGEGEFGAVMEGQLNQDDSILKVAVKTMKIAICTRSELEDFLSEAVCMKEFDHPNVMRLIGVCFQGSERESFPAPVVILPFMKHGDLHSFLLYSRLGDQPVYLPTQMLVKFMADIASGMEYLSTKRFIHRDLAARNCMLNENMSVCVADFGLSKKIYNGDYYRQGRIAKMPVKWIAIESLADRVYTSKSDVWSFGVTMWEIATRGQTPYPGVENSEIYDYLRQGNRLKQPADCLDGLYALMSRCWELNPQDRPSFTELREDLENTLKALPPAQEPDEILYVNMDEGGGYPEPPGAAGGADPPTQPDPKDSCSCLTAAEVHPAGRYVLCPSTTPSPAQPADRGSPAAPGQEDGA
As to the kind of experiment: Phospho-Akt in-cell Western assay. Format: cell-based. As to conditions: Hela cells, Axl antibody cross-linking stimulation, phospho-Akt readout. The protocol: Phospho-Akt in-Cell Western Assay
The compounds of the invention were tested in the following assay for their ability to inhibit Axl activity.
• Cell culture plate: 96 well assay plate (Corning 3610), white, clear bottom, tissue-culture treated. • Cells: Hela cells. • Starvation medium: For Axl stimulation: 0.5% FCS (fetal calf serum) in DMEM, plus Axl/Fc (extracellular domain of AXL fused to immunoglobulin Fc region) (R&D, 154-AL) 500 ng/mL. • For EGF (epidermal growth factor) stimulation: 0.5% FCS in DMEM (Dulbecco's modified Eagles medium). • Poly-L-Lysine 0.01% solution (the working solution): 10 μg/ml, dilute In PBS (phosphate buffered saline). • Axl antibody cross-linking: • 1st: Mouse anti-Axl (R&D, MAB154). • 2nd: Biotin-SP-conjugated AffiniPure goat anti-mouse IgG (H+L) (Jackson ImmunoResearch #115-065-003). • Fixing buffer: 4% formaldehyde in PBS. • Wash buffer: 0.1% TritonX-100 in PBS. • Quenching buffer: 3% H2O2, 0.1% Azide in wash buffer, Azide and hydrogen peroxide (H2O2) are added fresh. • Blocking buffer: 5% BSA in TBST (tris buffered saline plus 0.1% Tween 20). • Primary antibody: Rabbit anti-human Phospho-Akt antibody (Cell Signaling 9271): 1×250 diluted in blocking buffer. • Secondary antibody: HRP (horse radish peroxidase)-conjugated Goat anti-Rabbit secondary, stock solution: Jackson ImmunoResearch (Goat anti-Rabbit HRP, #111-035-144) 1:1 diluted in glycerol, store at −20° C. The working solution: 1×2000 dilution of stock in blocking buffer. • Chemiluminescent working solution (Pierce, 37030): SuperSignal ELISA (enzyme linked immunosorbant assay) Pico Chemiluminescent substrate. • Crystal Violet solution: Stock: 2.5% Crystal violet in methanol, filtered and kept at ambient temperature. The working solution: dilute the stock 1:20 with PBS immediately before use. • 10% SDS: working solution: 5% SDS (sodium dodecylsulfate), diluted in PBS Methods: Day 1:
A 96 well TC (tissue culture treated) plate was coated with 10 μg/mL poly-L-Lysine at 37° C. for 30 min, washed twice with PBS, and air-dried for 5 minutes before cells were added. Hela cells were seeded at 10,000 cells/well and the cells were starved in 100 μL starvation medium containing Axl/Fc for 24 hrs.
The cells were pre-treated with test compounds by adding 100 μL of 2× test compound to the starvation medium on the cells. The cells were incubated at 37° C. for 1 hr before stimulation.
The cells were stimulated by Axl-antibody cross-linking as follows: A 5×1st/2nd Axl antibody mixture was made (37.5 μg/mL 1st/100 μg/mL 2nd) in starvation medium and nutated at 4° C. with thorough mixing for 1-2 hours for clustering. The resulting mix was warmed to 37° C. 50 μL of 5× Axl 1st/2nd of antibody cluster was added to the cells and the cells were incubated at 37° C. for 5 min.
After 5 minutes stimulation, the plate was flicked to remove medium and the plate was tapped onto paper towels. Formaldehyde (4.0% in PBS, 100 μL) was added to fix the cells and the cells were incubated at ambient temperature for 20 min without shaking.
The cells were washed with a plate washer buffer to remove the formaldehyde solution. The plate was flicked to removed excess wash buffer and tapped onto paper towels. Quenching buffer (100 μL) was added to each well and the cells were incubated at ambient temperature for 20 minutes without shaking.
The cells were washed with a plate washer buffer to remove the quenching buffer. Blocking buffer (100 μL) was added and the cells were incubated at ambient temperature for at least an hour with gentle shaking.
The cells were washed with a plate washer buffer and diluted primary antibody (50 μL) was added to each well (blocking buffer was added to the negative control wells instead). The plates were incubated overnight at 4° C. with gentle shaking.
The wash buffer was removed, diluted secondary antibody (100 μL) was added, and the cells were incubated at ambient temperature for 1 hour with gentle shaking. […]

As a reminder, the pIC50 is −log10 of the IC50, conventionally taken in molar units. In turn, `Nc1nc(Nc2cnc3c(c2)CC(N)CC3)nn1-c1cc(-c2ccccc2)c2c(n1)C1CCN2CC1` (centres unmarked) [Compound 1, 1-(1,4-ethano-8-phenyl-1,2,3,4-tetrahydro-1,5-naphthyridin-6-yl)-N^3-(6-amino-5,6,7,8-tetrahydroquinoline-3-yl)-1H-1,2,4-triazole-3,5-diamine] showed a pIC50 (Table 1, formula (Ia)) of more than 6.00.

Molecule `Nc1nc(Nc2cnc3c(c2)CNCC3)nn1-c1cc(-c2ccccc2)c2c(n1)C1CCN2CC1` [Compound 2, 1-(1,4-ethano-8-phenyl-1,2,3,4-tetrahydro-1,5-naphthyridin-6-yl)-N^3-(5,6,7,8-tetrahydro-1,6-naphthyridine-3-yl)-1H-1,2,4-triazole-3,5-diamine] had a pIC50 (Table 2, formula (Ib)) of more than 6.00.

`CN(C)CC(=O)NC1CCc2ncc(Nc3nc(N)n(-c4cc(-c5ccccc5)c5c(n4)C4CCN5CC4)n3)cc2C1` (centres unmarked) [Compound 3, 1-(1,4-ethano-8-phenyl-1,2,3,4-tetrahydro-1,5-naphthyridin-6-yl)-N^3-(6-[(((dimethyl)amino)methyl)carbonylamino]-5,6,7,8-tetrahydroquinoline-3-yl)-1H-1,2,4-triazole-3,5-diamine] had a pIC50 (Table 1, formula (Ia)) of more than 6.00.

Where the note is “Table 2, formula (Ib)”, `CN(C)CC(=O)N1CCc2ncc(Nc3nc(N)n(-c4cc(-c5ccccc5)c5c(n4)C4CCN5CC4)n3)cc2C1` [Compound 4, 1-(1,4-ethano-8-phenyl-1,2,3,4-tetrahydro-1,5-naphthyridin-6-yl)-N^3-(6-[((dimethyl)amino)methylcarbonyl]-5,6,7,8-tetrahydro-1,6-naphthyridine-3-yl)-1H-1,2,4-triazole-3,5-diamine] had a pIC50 of more than 6.00.

In turn, `Nc1nc(Nc2cnc3c(c2)CC(NC2CCCC2)CC3)nn1-c1cc(-c2ccccc2)c2c(n1)C1CCN2CC1` (centres unmarked) [Compound 5, 1-(1,4-ethano-8-phenyl-1,2,3,4-tetrahydro-1,5-naphthyridin-6-yl)-N^3-(6-(cyclopentylamino)-5,6,7,8-tetrahydroquinoline-3-yl)-1H-1,2,4-triazole-3,5-diamine] showed a pIC50 (Table 1, formula (Ia)) of more than 6.00.

Where the note is “Table 2, formula (Ib)”, `Nc1nc(Nc2cnc3c(c2)CN(C2CCCC2)CC3)nn1-c1cc(-c2ccccc2)c2c(n1)C1CCN2CC1` [Compound 6, 1-(1,4-ethano-8-phenyl-1,2,3,4-tetrahydro-1,5-naphthyridin-6-yl)-N^3-(6-(cyclopentyl)-5,6,7,8-tetrahydro-1,6-naphthyridine-3-yl)-1H-1,2,4-triazole-3,5-diamine] gave a pIC50 of more than 6.00.

For the molecule `Nc1nc(Nc2ccc(N3CCC(N4CCCC4)CC3)c(F)c2)nn1-c1cc(-c2ccccc2)c2c(n1)C1CCN(CC1)C2` [Compound 7, 1-(6,9-ethano-4-phenyl-6,7,8,9-tetrahydro-5H-pyrido[3,2-c]azepin-2-yl)-N^3-(4-(4-(pyrrolidin-1-yl)piperidinyl)-3-fluorophenyl)-1H-1,2,4-triazole-3,5-diamine], the pIC50 (Table 3, formula (II)) was more than 6.00.

Molecule `Nc1nc(Nc2ccc(N3CCC(N4CCCC4)CC3)c(F)c2)nn1-c1cc(-c2ccc(F)cc2)c2c(n1)C1CCN2CC1` [Compound 8, 1-(1,4-ethano-8-(4-fluorophenyl)-1,2,3,4-tetrahydro-1,5-naphthyridin-6-yl)-N^3-(4-(4-(pyrrolidin-1-yl)piperidinyl)-3-fluorophenyl)-1H-1,2,4-triazole-3,5-diamine] had a pIC50 (Table 3, formula (II)) of more than 6.00.

The molecule `Nc1nc(Nc2ccc(N3CCC(N4CCCC4)CC3)c(F)c2)nn1-c1cc(-c2cccc(C(F)(F)F)c2)c2c(n1)C1CCN2CC1` [Compound 10, 1-(1,4-ethano-8-(3-trifluoromethylphenyl)-1,2,3,4-tetrahydro-1,5-naphthyridin-6-yl)-N^3-(4-(4-(pyrrolidin-1-yl)piperidinyl)-3-fluorophenyl)-1H-1,2,4-triazole-3,5-diamine] showed a pIC50 (Table 3, formula (II)) of more than 6.00.

In turn, `COc1cccc(-c2cc(-n3nc(Nc4ccc(N5CCC(N6CCCC6)CC5)c(F)c4)nc3N)nc3c2N2CCC3CC2)c1` [Compound 11, 1-(1,4-ethano-8-(3-methoxyphenyl)-1,2,3,4-tetrahydro-1,5-naphthyridin-6-yl)-N^3-(4-(4-(pyrrolidin-1-yl)piperidinyl)-3-fluorophenyl)-1H-1,2,4-triazole-3,5-diamine] had a negative logarithm of the IC50 (pIC50) (Table 3, formula (II)) of more than 6.00.

Where the note is “Table 3, formula (II)”, `Cc1ccccc1-c1cc(-n2nc(Nc3ccc(N4CCC(N5CCCC5)CC4)c(F)c3)nc2N)nc2c1N1CCC2CC1` [Compound 12, 1-(1,4-ethano-8-(2-methylphenyl)-1,2,3,4-tetrahydro-1,5-naphthyridin-6-yl)-N^3-(4-(4-(pyrrolidin-1-yl)piperidinyl)-3-fluorophenyl)-1H-1,2,4-triazole-3,5-diamine] had a pIC50 of more than 6.00.

Turning to `Nc1nc(Nc2ccc(N3CCC(N4CCCC4)CC3)c(F)c2)nn1-c1nnc(Cl)c2c1C1CCC2CC1` [Compound 13, 1-(4-chloro-5,8-ethano-5,6,7,8-tetrahydrophthalazine-1-yl)-N^3-(4-(4-(pyrrolidin-1-yl)piperidinyl)-3-fluorophenyl)-1H-1,2,4-triazole-3,5-diamine], for the setting “Table 5, formula (IVa)”, the pIC50 is more than 6.00.

Regarding `Nc1nc(Nc2ccc(N3CCC(N4CCCC4)CC3)c(F)c2)n(-c2nnc(Cl)c3c2C2CCC3CC2)n1` [Compound 14, 1-(4-chloro-5,8-ethano-5,6,7,8-tetrahydrophthalazine-1-yl)-N^5-(4-(4-(pyrrolidin-1-yl)piperidinyl)-3-fluorophenyl)-1H-1,2,4-triazole-3,5-diamine], for the setting “Table 6, formula (IVb)”, the pIC50 was 5.00 to 6.00.

For the molecule `Nc1nc(Nc2ccc(N3CCC(N4CCCC4)CC3)c(F)c2)nn1-c1nnc(-c2ccccc2Cl)c2c1C1CCC2CC1` [Compound 15, 1-(4-(2-chlorophenyl)-5,8-ethano-5,6,7,8-tetrahydrophthalazine-1-yl)-N^3-(4-(4-(pyrrolidin-1-yl)piperidinyl)-3-fluorophenyl)-1H-1,2,4-triazole-3,5-diamine], the pIC50 (Table 5, formula (IVa)) was more than 6.00.
